Several values for one entry are separate records, joined by “and”; a condition that tells them apart may be missing. Equal entries are not always repeated. ± gives the expanded uncertainty stated by the source.
Key:
[1] = xn = mol fraction of the nth substance listed; conditions: 100 kPa, Liquid, x1 = 1; for viscosity: Falling or rolling sphere viscometry; for mass density: Vibrating tube method
[2] = refractive index (Na D-line) (dimensionless); xn = mol fraction of the nth substance listed; conditions: 100 kPa, Liquid, Standard Abbe refractometry, x1 = 1
[3] = 100 kPa, Liquid; for viscosity: Falling or rolling sphere viscometry; for mass density: Vibrating tube method
[4] = refractive index (Na D-line) (dimensionless); conditions: 100 kPa, Liquid, Standard Abbe refractometry

SMILES | viscosity ([1]; 298.15 K) | mass density ([1]; 298.15 K) | viscosity ([1]; 303.15 K) | mass density ([1]; 303.15 K) | viscosity ([1]; 308.15 K) | mass density ([1]; 308.15 K) | refractive index ([2]; 298.15 K) | refractive index ([2]; 303.15 K) | refractive index ([2]; 308.15 K) | viscosity ([3]; 298.15 K) | mass density ([3]; 298.15 K) | viscosity ([3]; 303.15 K) | mass density ([3]; 303.15 K) | viscosity ([3]; 308.15 K) | mass density ([3]; 308.15 K) | refractive index ([4]; 298.15 K) | refractive index ([4]; 303.15 K) | refractive index ([4]; 308.15 K)
NCCO [2-aminoethan-1-ol] + NCCNCCN | 18.72 ± 0.44 mPa·s | 1012.4 ± 2.2 kg/m3 | 15.15 ± 0.36 mPa·s | 1008.4 ± 2.1 kg/m3 | 11.9 ± 0.28 mPa·s | 1004.5 ± 2.1 kg/m3 | 1.4535 ± 0.0021 | 1.4519 ± 0.0021 | 1.4505 ± 0.0021 |  |  |  |  |  |  |  |  | 
NCCO [2-aminoethan-1-ol] + NCCNCCO | 18.72 ± 0.44 mPa·s | 1012.4 ± 2.2 kg/m3 | 15.15 ± 0.36 mPa·s | 1008.4 ± 2.1 kg/m3 | 11.96 ± 0.28 mPa·s | 1004.5 ± 2.1 kg/m3 | 1.4535 ± 0.0021 | 1.4519 ± 0.0021 | 1.4505 ± 0.0021 |  |  |  |  |  |  |  |  | 
NCCNCCO [N-(2-aminoethyl)ethanolamine] |  |  |  |  |  |  |  |  |  | 98.62 ± 2.9 mPa·s | 1025.8 ± 2 kg/m3 | 70.57 ± 1.6 mPa·s | 1021.3 ± 2 kg/m3 | 53.11 ± 1.1 mPa·s | 1016.3 ± 2 kg/m3 | 1.4843 ± 0.002 | 1.4827 ± 0.002 | 1.4811 ± 0.002
NCCO [2-aminoethan-1-ol] |  |  |  |  |  |  |  |  |  | 18.72 ± 0.44 mPa·s | 1012.4 ± 2.2 kg/m3 | 15.15 ± 0.36 mPa·s | 1008.4 ± 2.1 kg/m3 | 11.9 ± 0.28 mPa·s and 11.96 ± 0.28 mPa·s | 1004.5 ± 2.1 kg/m3 | 1.4535 ± 0.0021 | 1.4519 ± 0.0021 | 1.4505 ± 0.0021
NCCNCCN [di(2-aminoethyl)amine] |  |  |  |  |  |  |  |  |  | 5.63 ± 0.13 mPa·s | 945.8 ± 2.1 kg/m3 | 4.5 ± 0.11 mPa·s | 942.1 ± 2.1 kg/m3 | 3.85 ± 0.09 mPa·s | 937.8 ± 2.1 kg/m3 | 1.4822 ± 0.0021 | 1.4808 ± 0.0021 | 1.4793 ± 0.0021

Source: the NIST ThermoML archive (doi:10.1016/j.fluid.2017.06.018)
